Measured values taken from US4166810A, “Derivatives of 4-desacetyl VLB C-3 carboxyhydrazide” (priority 1978, dated 1979).
Like-named read-outs stand apart in the source and are kept apart here.

What was measured:
[1] = test system: Gardner lymphosarcoma (GLS); assay: Transplanted tumor growth inhibition in mice, Gardner lymphosarcoma (GLS); assay type: in vivo; conditions: for inhibition in vivo at 0.125 mg/kg: 0.125 mg/kg × 10 days; for inhibition in vivo at 0.25 mg/kg: 0.25 mg/kg × 10 days
Procedure: (§1) The compounds of this invention are active in inhibiting the growth of transplanted tumors in mice and/or in prolonging the life of tumor-innoculated mice. […] The size of the tumor was measured at 7 or 11 days where the drug inhibited tumor growth. Where life-prolongation was concerned, extra life span of treated animals over that of control animals was determined.
(§2) The following table--Table 1--gives the results of experiments in which mice bearing transplanted tumors were treated successfully with a compound of this invention. In the table, column 1 gives the name of the compound; column 2, the transplanted tumor; column 3, the dose level or dose level range and the number of days the dosage was administered; and column 4, the percent inhibition of tumor growth or percent prolongation of survival time, e.g., B16 (ROS is an abbreviation for Ridgeway osteogenic sarcoma; GLS for Gardner lymphosarcoma; P 1534 (J) for a leukemia and B16 for a malignant melanoma.

[2] = test system: B16 malignant melanoma; assay: Survival prolongation in mice bearing B16 malignant melanoma; assay type: in vivo
Procedure: as §1, §2

[3] = test system: Ridgeway osteogenic sarcoma; conditions: Belgian Pat. No. 813,168; cited from earlier work
[4] = test system: transplanted tumors; conditions: Belgian Pat. No. 813,168; cited from earlier work
[5] = test system: P 1534(J) leukemia; conditions: Belgian Pat. No. 813,168; cited from earlier work
[6] = test system: Gardner lymphosarcoma; conditions: Belgian Pat. No. 813,168; cited from earlier work
[7] = test system: experimental malignancies; conditions: animals; cited from earlier work
[8] = humans; compared with vincristine; cited from earlier work
[9] = test system: vincristine-resistant leukemias; conditions: humans; cited from earlier work
[10] = test system: leukemias; conditions: clinical trial in humans; cited from earlier work
[11] = Mus musculus, 168 h, measured at 7 days, read-out: Percent Inhibition (of tumor growth), 7 days
[12] = Mus musculus, 264 h, measured at 11 days, read-out: Percent Inhibition (of tumor growth), 11 days

CCC1(O)CC2CN(CCc3c([nH]c4ccccc34)C(C(=O)OC)(c3cc4c(cc3OC)N(C)C3C(O)(C(=O)NNC(C)=O)C(O)C5(CC)C=CCN6CCC43C65)C2)C1 (stereo not shown) [4-Desacetyl VLB C-3 N^2-acetylcarboxhydrazide]
Percent Inhibition (of tumor growth), 11 days ([1]; 0.5 mg/kg × 10 days, measured at 11 days): Toxic
inhibition in vivo at 0.125 mg/kg [1, 11]: 100%
inhibition in vivo at 0.25 mg/kg [1, 11]: 100%
inhibition in vivo at 0.5 mg/kg ([1]; Mus musculus, 168 h, 0.5 mg/kg × 10 days, measured at 7 days, read-out: Percent Inhibition (of tumor growth), 7 days): 100%
inhibition in vivo at 0.125 mg/kg [1, 12]: 93%
inhibition in vivo at 0.25 mg/kg [1, 12]: 100%
Percent Prolongation (of survival time) ([2]; 0.15 mg/kg × 3 days): 71%
Percent Prolongation (of survival time) ([2]; 0.3 mg/kg × 3 days): 100%
Percent Prolongation (of survival time) ([2]; 0.6 mg/kg × 3 days): 109%
Percent Prolongation (of survival time) ([2]; 0.9 mg/kg × 3 days): 84%
Percent Prolongation (of survival time) ([2]; 1.2 mg/kg × 3 days): 69%

CCC1(O)CC2CN(CCc3c([nH]c4ccccc34)C(C(=O)OC)(c3cc4c(cc3OC)N(C)C3C(O)(C(=O)NN)C(O)C5(CC)C=CCN6CCC43C65)C2)C1 (stereo not shown) [4-Desacetyl VLB C-3 carboxhydrazide]
activity against Ridgeway osteogenic sarcoma [3]: active
anti-tumor activity against transplanted tumors in mice [4]: active anti-tumor agent against transplanted tumors in mice
activity against P 1534(J) leukemia [5]: active
activity against Gardner lymphosarcoma [6]: active

CC[C@]12CN3CCc4c([nH]c5ccccc45)[C@@](C(=O)OC)(c4cc5c(cc4OC)N(C)[C@H]4[C@@](O)(C(=O)OC)[C@H](OC(C)=O)[C@]6(CC)C=CCN7CC[C@]54[C@@H]76)C[C@H](C3)[C@H]1O2 [leurosine]
activity in the treatment of experimental malignancies [7]: found active in the treatment of experimental malignancies in animals

CCC1(O)CN2CCc3c([nH]c4ccccc34)C(C(=O)OC)(c3cc4c(cc3OC)N(C)C3C(O)(C(=O)OC)C(OC(C)=O)C5(CC)C=CCN6CCC43C65)CC(C2)C1O (stereo not shown) [vincadioline]
activity in the treatment of experimental malignancies [7]: found active in the treatment of experimental malignancies in animals

CC[C@]1(O)C[C@H]2CN(CCc3c([nH]c4ccccc34)[C@@](C(=O)OC)(c3cc4c(cc3OC)N(C=O)[C@H]3[C@@](O)(C(=O)OC)[C@H](OC(C)=O)[C@]5(CC)C=CCN6CC[C@]43[C@@H]65)C2)C1 [vincristine, leurocristine]
activity in the treatment of experimental malignancies [7]: found active in the treatment of experimental malignancies in animals

CC[C@]1(O)C[C@@H]2CN(CCc3c([nH]c4ccccc34)[C@@](C(=O)OC)(c3cc4c(cc3OC)N(C)[C@H]3[C@@](O)(C(N)=O)[C@H](O)[C@]5(CC)C=CCN6CC[C@]43[C@@H]65)C2)C1 [vindesine, 4-desacetyl VLB C-3 carboxamide]
neurotoxicity [8]: less neurotoxicity than does vincristine
effectiveness against vincristine-resistant leukemias [9]: apparently effective against vincristine-resistant leukemias
activity in leukemias [10]: found active in certain leukemias

leurosidine
activity in the treatment of experimental malignancies [7]: found active in the treatment of experimental malignancies in animals
